# Results taken from the PolyMetriX glass transition set.
# ± gives the standard deviation of the reports.
row,SMILES,glass transition temperature
1,*Cc1ccc(COP(=O)(/N=N/c2ccc(Oc3ccc(/N=N/P(=O)(O*)OC)cc3)cc2)OC)cc1 (repeat unit),50.00 °C
2,*c1ccc(-c2cc(-c3ccc(OCCCC#N)cc3)cc(-c3ccc(-n4c(=O)c5cc6c(=O)n(*)c(=O)c6cc5c4=O)cc3)n2)cc1 (repeat unit),345.00 °C
3,*CC(*)c1ccc(C(C)(C)O)cc1 (repeat unit),170.00 °C
4,*c1ccc(Oc2ccc(-n3c(=O)c4c(Oc5ccc(OCCCCCCCCCCCC)cc5)c5c(=O)n(*)c(=O)c5c(Oc5ccc(OCCCCCCCCCCCC)cc5)c4c3=O)cc2)cc1 (repeat unit),218.00 °C
5,*C(=O)c1ccc2c(c1)C(=O)N(c1cc(-c3nc4ccccc4oc3=O)cc(N3C(=O)c4ccc(*)cc4C3=O)c1)C2=O (repeat unit),95.00 °C
6,*C(=O)c1ccc2c(c1)C(=O)N(c1ccc(/C=C/c3ccc(N4C(=O)c5ccc(*)cc5C4=O)cc3)cc1)C2=O (repeat unit),303.00 °C
7,*C(=O)Nc1ccc(C(=O)c2ccc(NC(=O)c3ccc4c(c3)C(=O)N(c3ccc(NC(=O)Nc5ccc(N6C(=O)c7ccc(*)cc7C6=O)cc5)cc3)C4=O)cc2)cc1 (repeat unit),212.00 °C
8,*c1ccc([Si](*)(C)C)s1 (repeat unit),21.00 °C
9,*C(*)C(=O)OC1CCCCC1 (repeat unit),140.00 °C
10,*CCCCCCCCCCSS* (repeat unit),-65.00 °C
11,*c1ccc(Oc2ccc(-c3cnnc(-c4cccc(-c5ncc(*)nn5)n4)n3)cc2)cc1 (repeat unit),223.00 °C
12,*CCCN(*)C(=O)CCCCC (repeat unit),-16.00 °C
13,*c1ccc(Oc2ccc(-n3c(=O)c4cc5c(=O)n(*)c(=O)c5cc4c3=O)cc2-c2ccccc2)cc1 (repeat unit),329.00 °C
14,*c1ccc(Oc2ccc(Oc3ccc(N4C(=O)c5cccc(Oc6ccc(C(C)(C)c7ccc(Oc8cccc9c8C(=O)N(*)C9=O)cc7)cc6)c5C4=O)c(C)c3)cc2)cc1C (repeat unit),222.00 °C
15,*C(=O)OCCOC(=O)N1CCN(*)CC1 (repeat unit),60.00 °C
16,*CC(*)(C)C(=O)OC1CCOCC1 (repeat unit),153.50 °C
17,*Nc1ccc(Cc2ccc(NC(=O)c3ccc(C(*)=O)cc3)cc2)cc1 (repeat unit),294.50 °C
18,*[Si](*)(CCCCCC)c1ccccc1 (repeat unit),-70.00 °C
19,*CCOCCOCCOc1ccc(/C=C/c2cc(OC)c(/C=C/c3ccc(O*)c4ccccc34)cc2OC)c2ccccc12 (repeat unit),79.50 °C
20,*c1ccc(Oc2cccc(NC(=O)c3ccc(C(=O)Nc4cccc(Oc5ccc(-c6nnc(*)o6)cc5)c4)c(Oc4ccccc4)c3)c2)cc1 (repeat unit),234.00 °C
21,*c1cc(CCCCCCCCCC)c(*)s1 (repeat unit),-30.00 ± 4.2 °C
22,*Oc1ccc(C(=O)c2ccc(NC(=O)c3cccc(C(=O)Nc4ccc(C(=O)c5ccc(*)cc5)cc4)c3)cc2)cc1 (repeat unit),214.00 °C
23,*c1cccc(C(O)c2cccc(N3C(=O)c4ccc(Oc5ccc6c(c5)C(=O)N(*)C6=O)cc4C3=O)c2)c1 (repeat unit),252.00 °C

row,SMILES,glass transition temperature
1,*C(=O)c1ccc(-c2ccc(C(C)(C)c3ccc(-c4ccc(C(=O)c5ccc6c(c5)C(=O)N(c5ccc(Cc7ccc(N8C(=O)c9ccc(*)cc9C8=O)cc7)cc5)C6=O)cc4)cc3)cc2)cc1 (repeat unit),216.00 °C
2,*CCC1CC(*)C2CCCC12 (repeat unit),101.00 °C
3,*OP(=O)(Oc1ccc(C(C)(C)c2ccc(*)cc2)cc1)Oc1c(Cl)cc(Cl)cc1Cl (repeat unit),94.00 °C
4,*c1ccc(OC(=O)Nc2ccc(-c3ccc(NC(=O)Oc4ccc(-c5nc(-c6ccc([N+](=O)[O-])cc6)[nH]c5*)cc4)cc3OC)c(OC)c2)cc1 (repeat unit),202.00 °C
5,*Oc1cccc2ccc(Oc3ccc(NC(=O)c4ccc(Oc5ccc(C(=O)Nc6ccc(*)cc6)cc5)cc4)cc3)cc12 (repeat unit),236.00 °C
6,*/C=C/c1ccc2c3ccc(*)cc3n(-c3ccc(OCCCCCCCCCC)c(OCCCCCCCCCC)c3)c2c1 (repeat unit),95.00 °C
7,*c1ccc(Oc2cc(C(C)(C)C)c(Oc3ccc(-n4c(=O)c5cc6c(=O)n(*)c(=O)c6cc5c4=O)cc3)cc2C(C)(C)C)cc1 (repeat unit),298.00 °C
8,*Oc1ccc(S(=O)(=O)c2ccc(Oc3ccc(C(=O)c4cccc(C(=O)c5ccc(*)cc5)c4)cc3)cc2)cc1 (repeat unit),178.00 °C
9,*CC(OO*)c1ccc(Br)cc1 (repeat unit),9.60 °C
10,*c1ccc(Oc2ccc(N3C(=O)c4ccc([Si](C)(C)O[Si](C)(C)c5ccc6c(c5)C(=O)N(c5ccc(Oc7ccc(-c8nnc(*)o8)cc7)cc5)C6=O)cc4C3=O)cc2)cc1 (repeat unit),190.50 °C
11,*c1ccc(Cc2ccc(-n3nccc3-c3ccc(-c4ccnn4*)cc3)cc2)cc1 (repeat unit),202.00 °C
12,*C(=O)c1ccc2c(c1)C(=O)N(c1ccc(Oc3ccc(N4C(=O)c5ccc(*)cc5C4=O)cc3Br)c(Br)c1)C2=O (repeat unit),296.00 °C
13,*CC(*)C(=O)OC(OCC)C(F)(F)F (repeat unit),5.00 °C
14,*CC(*)OC(=O)C(C)(C)C(C)(C)CC (repeat unit),90.00 °C
15,*Nc1ccc(C(C)(C)c2cccc(C(C)(C)c3ccc(Nc4ccc(C(=O)c5ccc(C(=O)c6ccc(*)cc6)cc5)cc4)cc3)c2)cc1 (repeat unit),177.00 °C
16,*=Nc1cccc(S(=O)(=O)c2cccc(/N=C3/OC(=O)c4ccc(Oc5ccc6c(c5)C(=O)OC6=*)cc43)c2)c1 (repeat unit),190.00 °C
17,*Nc1cccc(NC(=O)CCCCCCCCC(=O)Nc2ccc(C(=O)NC(*)=S)cc2)c1 (repeat unit),265.00 °C
18,*Oc1ccc(C(C)(c2ccccc2)c2ccc(OC(*)=S)cc2)cc1 (repeat unit),181.00 °C
19,*c1cccc(N2C(=O)c3cccc(Oc4c(C)cc(Cc5cc(C)c(Oc6cccc7c6C(=O)N(*)C7=O)c(C)c5)cc4C)c3C2=O)c1 (repeat unit),269.00 °C
20,*Oc1ccc2c(c1)C(C)(c1ccc(OC(=O)c3cccc(C(*)=O)c3)cc1)CC2(C)C (repeat unit),230.50 °C
21,*Nc1ccc(*)cc1 (repeat unit),75.30 °C
22,*/C=C(/*)c1c(C)cc(C(C)(C)C)cc1C (repeat unit),200.00 °C

# More lines, now with the values ahead:
row,glass transition temperature,SMILES
1,217.50 °C,*c1ccc(Oc2ccc(C(c3ccc(Oc4ccc(N5C(=O)c6ccc(Oc7ccc(Sc8ccc(Oc9ccc%10c(c9)C(=O)N(*)C%10=O)cc8)cc7)cc6C5=O)cc4)cc3)(C(F)(F)F)C(F)(F)F)cc2)cc1 (repeat unit)
2,45.00 °C,*Oc1ccccc1C(=O)OC(=O)c1ccccc1OC(=O)C(C)C(C)C(*)=O (repeat unit)
3,165.00 °C,*C1C(=O)N(c2ccc(O[Si](CC)(CC)CC)cc2)C(=O)C1* (repeat unit)
4,28.90 °C,*O[Si](*)(C)CC[Si](OCCOC)(OCCOC)OCCOC (repeat unit)
5,12.00 °C,*O[Si](*)(C)CCCCCCOc1ccc(C(=O)Oc2ccc(OCCCCCC)cc2)cc1 (repeat unit)
6,-24.00 °C,*CC(*)CCCCCCCCCCCCCC (repeat unit)
7,297.00 °C,*OC(=O)c1ccc(C2(C)CC(C)(C)c3ccc(C(=O)Oc4ccc5c(c4)Oc4cc(*)ccc4C5(C)C)cc32)cc1 (repeat unit)
8,53.80 °C,*CC(OC(=O)C(=O)OCC)C(COC(=O)O*)OC(=O)C(=O)OCC (repeat unit)
9,37.00 °C,*OC(C)COC(C)COC(=O)c1ccc(C(*)=O)cc1 (repeat unit)
10,105.00 °C,*Oc1ccc(OC(=O)c2ccc(C(*)=O)cc2Oc2ccccc2)cc1 (repeat unit)
11,84.00 °C,*CCCCCCCCCCCCNC(=O)C(OC)C(OC)C(=O)N* (repeat unit)
12,172.00 °C,*Cc1cccc(CNC(=O)c2cccc(C(=O)N*)c2)c1 (repeat unit)
13,60.00 °C,*CC#C/C(C#CCOC(=O)CCCCCCCCC(=O)O*)=C\c1ccc(C#Cc2ccc([N+](=O)[O-])cc2)cc1 (repeat unit)
14,315.10 °C,*c1ccc2c(c1)C(=O)N(c1ccc(C(c3ccc(N4C(=O)c5ccc(C(*)(C(F)(F)F)C(F)(F)F)cc5C4=O)cc3)(C(F)(F)F)C(F)(F)F)cc1)C2=O (repeat unit)
15,19.00 °C,*CCCCCCOC(=O)CCCCCCCCCCCCCCCCCCC(=O)OCCCCCCN1C(=O)c2ccc(S(=O)(=O)c3ccc4c(c3)C(=O)N(*)C4=O)cc2C1=O (repeat unit)
16,48.00 °C,*CC(*)C(=O)OCCCOc1ccc(C(=O)OCCCC(F)(F)C(F)(F)C(F)(F)C(F)(F)C(F)(F)C(F)(F)C(F)(F)C(F)(F)F)cc1 (repeat unit)
17,295.50 ± 11 °C,*c1ccc2c(c1)C(=O)N(c1ccc(Oc3ccc(N4C(=O)c5ccc(C(*)(C(F)(F)F)C(F)(F)F)cc5C4=O)cc3)cc1)C2=O (repeat unit)
18,67.00 °C,*CC(*)C(=O)Oc1ccc(C(=O)OC)cc1 (repeat unit)
19,2.00 °C,*CC(*)(CC(=O)OCCCCC)C(=O)OCCCCC (repeat unit)
20,-46.50 °C,*C(=O)CCCCCCCCC(=O)NC1CCCCN(*)C1 (repeat unit)
21,-43.00 °C,*CC(COC(F)(C(F)(F)F)C(F)(F)F)O* (repeat unit)
22,24.00 °C,*CCOC(=O)Cc1ccc(C(=O)O*)cc1 (repeat unit)
23,-55.00 °C,*CC(*)C(=O)OCC(F)(F)C(F)(F)OC(F)(F)F (repeat unit)
24,90.50 °C,*CC(*)(C)C(=O)NC1C(O)OC(CO)C(O)C1O (repeat unit)
